Assay results: PubChem BioAssay AID248 (DTP/NCI, 2004)
Several values for one entry are separate records, joined by “and”; a condition that tells them apart may be missing. Equal entries are not always repeated. Toxic doses and inconclusive results are not listed.

Test system: L1210 leukemia ip in BDF1 mice, survival T/C
Experiment: NCI In Vivo Anticancer Drug Screen. Data for tumor model L1210 Leukemia (intraperitoneal) in B6D2F1 (BDF1) mice
Settings: higher = longer survival
Outline: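 Value reflects the ratio of survival in compound-treated mice to survival in vehicle-treated controls, with both groups carrying the same transplanted tumor.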

[1] = endpoint: mean survival time, dose: 100.0 mg/kg/injection, schedule: Q01DX001 (ip), vehicle: Klucel (hydroxypropylcellulose) (HPC)
[2] = endpoint: mean survival time, dose: 200.0 mg/kg/injection, schedule: Q01DX001 (ip), vehicle: Klucel (hydroxypropylcellulose) (HPC)
[3] = endpoint: mean survival time, dose: 400.0 mg/kg/injection, schedule: Q01DX001 (ip), vehicle: Klucel (hydroxypropylcellulose) (HPC)

CCCC(CC)C(=O)OCCCSCCCOC(=O)C(CC)CCC (stereo unspecified)
T/C (endpoint: mean survival time, dose: 222.0 mg/kg/injection, schedule: Q01DX Z (ip), vehicle: methylcellulose (MC)): 92 % of control | T/C (endpoint: mean survival time, dose: 333.0 mg/kg/injection, schedule: Q01DX Z (ip), vehicle: methylcellulose (MC)): 94 % of control | T/C (endpoint: mean survival time, dose: 500.0 mg/kg/injection, schedule: Q01DX Z (ip), vehicle: methylcellulose (MC)): 87 % of control

N#Cc1cc(-c2ccccc2)c[nH]c1=O
T/C (endpoint: mean survival time, dose: 20.0 mg/kg/injection, schedule: Q01DX001 (ip), vehicle: Klucel (hydroxypropylcellulose) (HPC)): 98 % of control | T/C (endpoint: mean survival time, dose: 40.0 mg/kg/injection, schedule: Q01DX001 (ip), vehicle: Klucel (hydroxypropylcellulose) (HPC)): 101 % of control | T/C (endpoint: mean survival time, dose: 80.0 mg/kg/injection, schedule: Q01DX001 (ip), vehicle: Klucel (hydroxypropylcellulose) (HPC)): 103 % of control | T/C [1]: 102 % of control

C1CCC2C(C1)CCCC2CC1CCCC2CCCCC21 (stereo unspecified)
T/C (endpoint: mean survival time, dose: 75.0 mg/kg/injection, schedule: Q01DX001 (ip), vehicle: acetone): 100 % of control | T/C (endpoint: mean survival time, dose: 150.0 mg/kg/injection, schedule: Q01DX001 (ip), vehicle: acetone): 106 % of control | T/C (endpoint: mean survival time, dose: 300.0 mg/kg/injection, schedule: Q01DX001 (ip), vehicle: acetone): 100 % of control

CCNC(=S)Nc1ccc(OCC)cc1
T/C (endpoint: mean survival time, dose: 100.0 mg/kg/injection, schedule: Q04DX002 (ip), vehicle: saline with Tween-80): 89 % of control | T/C (endpoint: mean survival time, dose: 200.0 mg/kg/injection, schedule: Q04DX002 (ip), vehicle: saline with Tween-80): 95 % of control | T/C (endpoint: mean survival time, dose: 400.0 mg/kg/injection, schedule: Q04DX002 (ip), vehicle: saline with Tween-80): 100 % of control

NC(Cc1ccc(N(CCCl)CCCl)cc1)C(=O)O (stereo unspecified)
T/C (endpoint: mean survival time, dose: 0.32 mg/kg/injection, schedule: Q01DX Z (ip), vehicle: carboxymethylcellulose (CMC)): 110 % of control | T/C (endpoint: mean survival time, dose: 0.37 mg/kg/injection, schedule: Q01DX Z (im), vehicle: saline): 111 % of control | T/C (endpoint: mean survival time, dose: 0.37 mg/kg/injection, schedule: Q01DX Z (ip), vehicle: saline): 111 % of control | T/C (endpoint: mean survival time, dose: 0.37 mg/kg/injection, schedule: Q01DX Z (sc), vehicle: saline): 104 % of control | T/C (endpoint: mean survival time, dose: 0.5 mg/kg/injection, schedule: Q01DX010 (ip), vehicle: alkali diluted with saline): 122 % of control and 123 % of control | T/C (endpoint: mean survival time, dose: 0.51 mg/kg/injection, schedule: Q01DX Z (ip), vehicle: carboxymethylcellulose (CMC)): 119 % of control | T/C (endpoint: mean survival time, dose: 0.64 mg/kg/injection, schedule: Q01DX Z (ip), vehicle: carboxymethylcellulose (CMC)): 122 % of control | T/C (endpoint: mean survival time, dose: 0.75 mg/kg/injection, schedule: Q01DX Z (im), vehicle: saline): 122 % of control | T/C (endpoint: mean survival time, dose: 0.75 mg/kg/injection, schedule: Q01DX Z (ip), vehicle: saline): 115 % of control | T/C (endpoint: mean survival time, dose: 0.75 mg/kg/injection, schedule: Q01DX Z (sc), vehicle: saline): 113 % of control | T/C (endpoint: mean survival time, dose: 1.0 mg/kg/injection, schedule: Q01DX010 (ip), vehicle: alkali diluted with saline): 123 % of control | T/C (endpoint: mean survival time, dose: 1.0 mg/kg/injection, schedule: Q01DX Z (ip), vehicle: methylcellulose (MC)): 151 % of control | T/C (endpoint: mean survival time, dose: 1.25 mg/kg/injection, schedule: Q01DX010 (ip), vehicle: saline): 118 % of control | T/C (endpoint: mean survival time, dose: 1.28 mg/kg/injection, schedule: Q01DX Z (ip), vehicle: carboxymethylcellulose (CMC)): 151 % of control | T/C (endpoint: mean survival time, dose: 1.5 mg/kg/injection, schedule: Q01DX Z (sc), vehicle: saline): 119 % of control | T/C (endpoint: mean survival time, dose: 2.5 mg/kg/injection, schedule: Q01DX009 (ip), vehicle: saline): 123 % of control and 124 % of control | T/C (endpoint: mean survival time, dose: 2.56 mg/kg/injection, schedule: Q01DX Z (ip), vehicle: carboxymethylcellulose (CMC)): 166 % of control | T/C (endpoint: mean survival time, dose: 3.0 mg/kg/injection, schedule: Q01DX006 (iv), vehicle: saline): 119 % of control | T/C (endpoint: mean survival time, dose: 3.0 mg/kg/injection, schedule: Q01DX Z (im), vehicle: saline): 166 % of control and 176 % of control | T/C (endpoint: mean survival time, dose: 3.0 mg/kg/injection, schedule: Q01DX Z (ip), vehicle: saline): 150 % of control and 201 % of control | T/C (endpoint: mean survival time, dose: 3.0 mg/kg/injection, schedule: Q01DX Z (sc), vehicle: saline): 161 % of control | T/C (endpoint: mean survival time, dose: 3.2 mg/kg/injection, schedule: Q01DX Z (ip), vehicle: saline): 113 % of control | T/C (endpoint: mean survival time, dose: 4.0 mg/kg/injection, schedule: Q01DX009 (ip), vehicle: saline): 187 % of control and 200 % of control | T/C (endpoint: mean survival time, dose: 5.0 mg/kg/injection, schedule: Q01DX009 (ip), vehicle: saline): 167 % of control | T/C (endpoint: mean survival time, dose: 5.0 mg/kg/injection, schedule: Q01DX010 (ip), vehicle: saline): 152 % of control | T/C (endpoint: mean survival time, dose: 6.0 mg/kg/injection, schedule: Q01DX006 (iv), vehicle: saline): 114 % of control | T/C (endpoint: mean survival time, dose: 6.0 mg/kg/injection, schedule: Q01DX Z (im), vehicle: saline): 154 % of control | T/C (endpoint: mean survival time, dose: 6.0 mg/kg/injection, schedule: Q01DX Z (ip), vehicle: saline): 164 % of control | T/C (endpoint: mean survival time, dose: 6.0 mg/kg/injection, schedule: Q01DX Z (sc), vehicle: saline): 185 % of control | T/C (endpoint: mean survival time, dose: 6.3 mg/kg/injection, schedule: Q01DX Z (ip), vehicle: saline): 86 % of control | T/C (endpoint: mean survival time, dose: 8.0 mg/kg/injection, schedule: Q01DX001 (ip), vehicle: carboxymethylcellulose (CMC)): 181 % of control | T/C (endpoint: mean survival time, dose: 8.0 mg/kg/injection, schedule: Q01DX009 (ip), vehicle: saline): 111 % of control and 122 % of control | T/C (endpoint: mean survival time, dose: 10.0 mg/kg/injection, schedule: Q01DX009 (ip), vehicle: saline): 167 % of control and 193 % of control | T/C (endpoint: mean survival time, dose: 10.0 mg/kg/injection, schedule: Q01DX010 (ip), vehicle: saline): 177 % of control | T/C (endpoint: mean survival time, dose: 12.0 mg/kg/injection, schedule: Q01DX001 (ip), vehicle: carboxymethylcellulose (CMC)): 253 % of control | T/C (endpoint: mean survival time, dose: 12.0 mg/kg/injection, schedule: Q01DX006 (iv), vehicle: saline): 123 % of control | T/C (endpoint: mean survival time, dose: 12.0 mg/kg/injection, schedule: Q01DX Z (oral), vehicle: saline): 90 % of control | T/C (endpoint: mean survival time, dose: 12.0 mg/kg/injection, schedule: Q01DX Z (sc), vehicle: saline): 111 % of control | T/C (endpoint: mean survival time, dose: 15.0 mg/kg/injection, schedule: Q01DX Z (ip), vehicle: carboxymethylcellulose (CMC)): 172 % of control | T/C (endpoint: mean survival time, dose: 16.0 mg/kg/injection, schedule: Q01DX009 (ip), vehicle: saline): 93 % of control | T/C (endpoint: mean survival time, dose: 16.0 mg/kg/injection, schedule: Q01DX Z (ip), vehicle: methylcellulose (MC)): 90 % of control | T/C (endpoint: mean survival time, dose: 18.0 mg/kg/injection, schedule: Q01DX001 (ip), vehicle: carboxymethylcellulose (CMC)): 341 % of control | T/C (endpoint: mean survival time, dose: 18.0 mg/kg/injection, schedule: Q01DX001 (ip), vehicle: saline): 202 % of control and 233 % of control | T/C (endpoint: mean survival time, dose: 20.0 mg/kg/injection, schedule: Q01DX009 (ip), vehicle: saline): 94 % of control | T/C (endpoint: mean survival time, dose: 20.0 mg/kg/injection, schedule: Q01DX010 (ip), vehicle: saline): 117 % of control | T/C (endpoint: mean survival time, dose: 22.0 mg/kg/injection, schedule: Q01DX Z (ip), vehicle: carboxymethylcellulose (CMC)): 87 % of control | T/C (endpoint: mean survival time, dose: 24.0 mg/kg/injection, schedule: Q01DX006 (iv), vehicle: saline): 123 % of control | T/C (endpoint: mean survival time, dose: 25.0 mg/kg/injection, schedule: Q01DX001 (ip), vehicle: saline): 118 % of control and 229 % of control and 230 % of control | T/C (endpoint: mean survival time, dose: 35.0 mg/kg/injection, schedule: Q01DX001 (ip), vehicle: saline): 161 % of control and 240 % of control | T/C (endpoint: mean survival time, dose: 50.0 mg/kg/injection, schedule: Q01DX001 (ip), vehicle: saline): 87 % of control | T/C (endpoint: median survival time, dose: 10.0 mg/kg/injection, schedule: Q01DX009 (ip), vehicle: saline): 155 % of control and 156 % of control | T/C (endpoint: median survival time, dose: 20.0 mg/kg/injection, schedule: Q01DX009 (ip), vehicle: saline): 112 % of control

COc1ccc(-n2c(O)c(N=Nc3ccccc3OC)c(=O)n(-c3ccccc3)c2=S)cc1
T/C (endpoint: mean survival time, dose: 50.0 mg/kg/injection, schedule: Q01DX001 (ip), vehicle: Klucel (hydroxypropylcellulose) (HPC)): 94 % of control | T/C [1]: 92 % of control | T/C [2]: 92 % of control

NNC(=O)CNc1ccc(Br)cc1
T/C (endpoint: mean survival time, dose: 100.0 mg/kg/injection, schedule: Q04DX002 (ip), vehicle: Klucel (hydroxypropylcellulose) (HPC)): 112 % of control | T/C (endpoint: mean survival time, dose: 200.0 mg/kg/injection, schedule: Q04DX002 (ip), vehicle: Klucel (hydroxypropylcellulose) (HPC)): 106 % of control

CCCCCCCCCOc1ccc(C=O)cc1OC
T/C [1]: 93 % of control | T/C [2]: 102 % of control | T/C [3]: 100 % of control

Cc1ccc(NC(=O)NCCCl)cc1NC(=O)NCCCl
T/C (endpoint: mean survival time, dose: 50.0 mg/kg/injection, schedule: Q01DX009 (ip), vehicle: Klucel (hydroxypropylcellulose) (HPC)): 106 % of control | T/C (endpoint: mean survival time, dose: 100.0 mg/kg/injection, schedule: Q01DX009 (ip), vehicle: Klucel (hydroxypropylcellulose) (HPC)): 97 % of control | T/C (endpoint: mean survival time, dose: 100.0 mg/kg/injection, schedule: Q04DX003 (ip), vehicle: Klucel (hydroxypropylcellulose) (HPC)): 94 % of control | T/C (endpoint: mean survival time, dose: 200.0 mg/kg/injection, schedule: Q01DX009 (ip), vehicle: Klucel (hydroxypropylcellulose) (HPC)): 108 % of control | T/C (endpoint: mean survival time, dose: 200.0 mg/kg/injection, schedule: Q04DX003 (ip), vehicle: Klucel (hydroxypropylcellulose) (HPC)): 95 % of control

CCC(CN)(c1cccs1)c1cccs1
T/C [1]: 87 % of control | T/C [2]: 97 % of control | T/C [3]: 103 % of control
